Measurements published in patent US20040266784A1, “Calcium channel inhibitors comprising benzhydril spaced from piperazine” (priority 1998, published 2004).
Like-named read-outs stand apart in the source and are kept apart here.

Key:
[1] = target: T1, rat N-type channels (α1B+α2δ+β1b subunits) (Rattus norvegicus, UniProt Q02294); test: Whole cell patch clamp, N-type calcium channel block in HEK 293 cells; assay type: cell-based
T1 construct: expressed in transfected cells
Protocol: Antagonist activity was measured using whole cell patch recordings on human embryonic kidney cells either stably or transiently expressing rat N-type channels (α1B+[…]+β1b subunits) with 5 mM barium as a charge carrier. Alternatively, cells either stably or transiently expressing rat L-type channels (α1C+α2δ+β1b cDNA subunits) and P/Q-type channels (α1A+α2δ+β1b cDNA subunits)
HEK 293 cells were transfected by a standard calcium-phosphate-DNA coprecipitation method using the rat α1B+β1b+α2δ N-type calcium channel subunits in a vertebrate expression vector (for example, see Current Protocols in Molecular Biology).
After an incubation period of from 24 to 72 hrs the culture medium was removed and replaced with external recording solution (see below). Whole cell patch clamp experiments were performed using an Axopatch 200B amplifier (Axon Instruments, Burlingame, Calif.) linked to an IBM compatible personal computer equipped with pCLAMP software. […] Current data shown were elicited by a train of 100 ms test pulses at 0.066 Hz from −100 mV and/or −80 mV to various potentials (min. −20 mV, max. +30 mV). Drugs were perfused directly into the vicinity of the cells using a microperfusion system.
Normalized dose-response curves were fit (Sigmaplot 4.0, SPSS Inc., Chicago, Ill.) by the Hill equation to determine IC50 values. Steady-state inactivation curves were plotted as the normalized test pulse amplitude following 5 s inactivating prepulses at +10 mV increments.
Alternatively, N-type calcium channels (α1B+α2δ+β1b cDNA subunits), L-type channels (α1C+α2δ+β1b cDNA subunits) and P/Q-type channels (α1A+α2δ+β1b cDNA subunits) were transiently expressed in HEK 293 cells. Briefly, cells were cultured in Dulbecco's modified eagle medium (DMEM) supplemented with 10% fetal bovine serum, 200 U/ml penicillin and 0.2 mg/ml streptomycin at 37° C. with 5% CO2. […] At 12 hours the medium was replaced and the cells transiently transfected using a standard calcium phosphate protocol and the appropriate calcium channel cDNAs. Fresh DMEM was supplied and the cells transferred to 28° C./5% CO2.
Whole cell patch clamp experiments were performed using an Axopatch 200B amplifier (Axon Instruments, Burlingame, Calif.) linked to a personal computer equipped with pCLAMP software. […] Currents were typically elicited from a holding potential of −80 mV to +10 mV using Clampex software (Axon Instruments). […] The compounds were then applied during the low frequency pulse trains for two to three minutes to assess tonic block, and subsequently the pulse frequency was increased to 0.2 Hz to assess frequency dependent block. Data were analyzed using Clampfit (Axon Instruments) and SigmaPlot 4.0 (Jandel Scientific).

[2] = target: T2, human α1G subunits (T-type channels) (Homo sapiens, UniProt O43497); test: Block of α1G T-type channels, patch clamp in HEK cell lines; assay type: cell-based
T2 construct: expressed in transfected cells
Protocol: Standard patch-clamp techniques were employed to identify blockers of T-type currents. Briefly, previously described HEK cell lines stably expressing human α1G subunits were used for all the recordings (passage #: 4-20, 37° C., 5% CO2). To obtain T-type currents, plastic dishes containing semi-confluent cells were positioned on the stage of a ZEISS AXIOVERT S100 microscope after replacing the culture medium with external solution (see below). Whole-cell patches were obtained using pipettes (borosilicate glass with filament, O.D.: 1.5 mm, I.D.: 0.86 mm, 10 cm length), fabricated on a SUTTER P-97 puller with resistance values of ˜5 MΩ (see below for internal medium).
Test compounds were dissolved in external solution, 0.1-0.01% DMSO. After ˜10 min rest, they were applied by gravity close to the cell using a WPI microfil tubing. The “non-inactivating” pre-pulse was used to examine the resting block of a compound. The “inactivating” protocol was employed to study voltage-dependent block. However, the initial data were obtained using the non-inactivating protocol.

[3] = 0.067 Hz, read-out: IC50 for N-type Calcium Channel Block (0.067 Hz)
[4] = 0.2 Hz, read-out: IC50 for N-type Calcium Channel Block (0.2 Hz)
[5] = 80 mV, read-out: Block of α1G T-type Channels IC50, 80 mV
[6] = 100 mV, non-inactivating protocol, read-out: Block of α1G T-type Channels IC50, 100 mV

T2 sequence (O43497 whole entry): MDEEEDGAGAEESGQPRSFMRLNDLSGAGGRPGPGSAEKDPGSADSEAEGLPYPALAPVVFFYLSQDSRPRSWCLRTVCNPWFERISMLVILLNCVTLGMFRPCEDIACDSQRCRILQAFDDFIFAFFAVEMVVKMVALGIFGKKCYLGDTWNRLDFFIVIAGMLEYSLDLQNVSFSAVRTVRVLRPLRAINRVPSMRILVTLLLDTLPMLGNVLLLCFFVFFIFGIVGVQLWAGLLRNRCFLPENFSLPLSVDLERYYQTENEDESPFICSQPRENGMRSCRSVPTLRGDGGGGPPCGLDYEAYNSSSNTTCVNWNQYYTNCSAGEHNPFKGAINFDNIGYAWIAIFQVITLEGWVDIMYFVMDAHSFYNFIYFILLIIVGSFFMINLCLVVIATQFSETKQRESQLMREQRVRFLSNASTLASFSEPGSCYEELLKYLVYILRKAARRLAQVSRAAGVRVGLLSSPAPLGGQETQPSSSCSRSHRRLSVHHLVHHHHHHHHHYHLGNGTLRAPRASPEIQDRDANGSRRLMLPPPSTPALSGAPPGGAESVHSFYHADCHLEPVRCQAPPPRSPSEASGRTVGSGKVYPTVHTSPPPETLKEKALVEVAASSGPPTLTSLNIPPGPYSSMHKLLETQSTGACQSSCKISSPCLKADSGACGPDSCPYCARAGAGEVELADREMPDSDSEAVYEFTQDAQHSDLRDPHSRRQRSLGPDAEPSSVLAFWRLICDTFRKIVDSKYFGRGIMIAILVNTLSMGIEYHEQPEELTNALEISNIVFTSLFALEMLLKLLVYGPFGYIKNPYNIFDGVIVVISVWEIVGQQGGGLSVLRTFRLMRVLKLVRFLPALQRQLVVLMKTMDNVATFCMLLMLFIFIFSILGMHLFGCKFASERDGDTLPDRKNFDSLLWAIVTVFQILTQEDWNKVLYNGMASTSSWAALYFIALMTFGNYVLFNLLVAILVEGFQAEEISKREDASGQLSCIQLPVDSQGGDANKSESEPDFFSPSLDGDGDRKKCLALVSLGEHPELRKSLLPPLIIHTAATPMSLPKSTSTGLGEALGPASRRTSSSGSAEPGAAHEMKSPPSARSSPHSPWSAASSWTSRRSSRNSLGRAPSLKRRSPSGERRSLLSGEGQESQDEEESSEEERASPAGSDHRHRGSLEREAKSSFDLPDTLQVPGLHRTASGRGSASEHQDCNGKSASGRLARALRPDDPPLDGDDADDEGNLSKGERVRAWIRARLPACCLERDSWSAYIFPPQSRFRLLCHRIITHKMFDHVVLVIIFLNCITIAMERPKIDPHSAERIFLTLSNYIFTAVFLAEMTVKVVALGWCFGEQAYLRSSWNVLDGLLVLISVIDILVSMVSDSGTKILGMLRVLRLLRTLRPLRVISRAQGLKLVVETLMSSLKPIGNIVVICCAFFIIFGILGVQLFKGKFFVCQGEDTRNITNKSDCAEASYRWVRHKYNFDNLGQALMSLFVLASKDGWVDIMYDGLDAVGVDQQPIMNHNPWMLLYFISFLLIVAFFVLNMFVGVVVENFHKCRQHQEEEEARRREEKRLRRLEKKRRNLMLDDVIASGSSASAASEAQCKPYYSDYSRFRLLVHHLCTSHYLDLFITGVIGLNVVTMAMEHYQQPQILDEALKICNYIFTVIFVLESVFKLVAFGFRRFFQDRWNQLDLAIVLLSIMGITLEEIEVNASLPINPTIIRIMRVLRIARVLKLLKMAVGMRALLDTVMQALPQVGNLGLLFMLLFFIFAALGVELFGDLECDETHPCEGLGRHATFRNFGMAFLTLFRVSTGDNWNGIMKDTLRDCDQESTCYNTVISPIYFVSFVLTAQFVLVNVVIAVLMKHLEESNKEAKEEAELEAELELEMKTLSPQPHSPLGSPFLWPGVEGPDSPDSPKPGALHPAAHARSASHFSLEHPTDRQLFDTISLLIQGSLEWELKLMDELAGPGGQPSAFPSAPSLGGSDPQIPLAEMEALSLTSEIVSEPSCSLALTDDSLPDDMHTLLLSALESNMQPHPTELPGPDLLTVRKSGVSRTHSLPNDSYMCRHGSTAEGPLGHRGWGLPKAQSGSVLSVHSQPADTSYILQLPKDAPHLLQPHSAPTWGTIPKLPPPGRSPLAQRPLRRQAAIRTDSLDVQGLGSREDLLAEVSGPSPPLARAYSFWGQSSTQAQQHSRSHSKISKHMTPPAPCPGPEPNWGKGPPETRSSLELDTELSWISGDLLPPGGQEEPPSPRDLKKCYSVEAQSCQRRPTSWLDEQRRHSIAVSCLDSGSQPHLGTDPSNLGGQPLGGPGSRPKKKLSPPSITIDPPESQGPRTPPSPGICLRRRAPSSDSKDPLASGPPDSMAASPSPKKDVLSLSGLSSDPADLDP

Structure (SMILES)	IC50 [1, 3] [nM]	IC50 [1, 4] [nM]	IC50 [2, 5] [nM]	IC50 [2, 6] [nM]
Fc1ccc(C(CCCCCN2CCN(Cc3ccc(Br)cc3)CC2)c2ccc(F)cc2)cc1 [Compound P73]	439	377		
COc1cc(C(=O)N2CCN(C(=O)CCCCC(c3ccc(F)cc3)c3ccc(F)cc3)CC2)cc(OC)c1O [Compound P75]	839	603		
Fc1ccc(C(CCCCCN2CCN(c3nc4ccccc4s3)CC2)c2ccc(F)cc2)cc1 [Compound P32]	345	245		
O=C1CN(C(=O)CCCCC(c2ccc(F)cc2)c2ccc(F)cc2)CCN1CCOc1ccc(F)cc1 [Compound P53]	200	980		
Fc1ccc(C(CCCCCN2CCN(Cc3cc(C(F)(F)F)cc(C(F)(F)F)c3)CC2)c2ccc(F)cc2)cc1 [Compound P70]	1040	1060		
CC(C)(C)c1cc(C(=O)N2CCN(C(=O)CCCCC(c3ccc(F)cc3)c3ccc(F)cc3)C(=O)C2)cc(C(C)(C)C)c1O [Compound P57]	600	400		
CCOC(=O)C1CN(CCCCCC(c2ccc(F)cc2)c2ccc(F)cc2)CCN1Cc1cc(OC)c(OC)c(OC)c1 (stereo not shown) [Compound P62]	680	410		
COc1cc(CN2CCN(C(=O)CCCCC(c3ccc(F)cc3)c3ccc(F)cc3)CC2=O)cc(OC)c1OC [Compound P48, 4-[6,6-bis-(4-fluoro-phenyl)-hexanoyl]-1-(3,4,5,-trimethoxy-benzyl)-piperazin-2-one]	102	56		
COc1c(C(C)(C)C)cc(C(=O)N2CCN(CCCCCC(c3ccc(F)cc3)c3ccc(F)cc3)C(=O)C2)cc1C(C)(C)C [Compound P54]	120	76		
Fc1ccc(C(CCCCCN2CCN(Cc3ccc(OC(F)(F)F)cc3)CC2)c2ccc(F)cc2)cc1 [Compound P77]	280	220		
O=C(CCCCC(c1ccc(F)cc1)c1ccc(F)cc1)N1CCN(C(=O)c2cc(C(F)(F)F)cc(C(F)(F)F)c2)CC1 [Compound P71]	870	510		
COc1c(C(C)(C)C)cc(CN2CCN(C(=O)CCCCC(c3ccc(F)cc3)c3ccc(F)cc3)CC2=O)cc1C(C)(C)C [Compound P52]	400	370		
COc1cc(OCCN2CCN(CCCCCC(c3ccc(F)cc3)c3ccc(F)cc3)CC2)cc(OC)c1OC [Compound P66]	800	550		
Oc1c(Br)cc(CN2CCN(CCCCCC(c3ccc(F)cc3)c3ccc(F)cc3)CC2)cc1Br [Compound P76]	680	514		
COc1cc(C(=O)N2CCN(C(=O)CCCCC(O)(c3ccc(F)cc3)c3ccc(F)cc3)CC2)cc(OC)c1OC [Compound P46, 6,6-bis-(4-fluoro-phenyl)-6-hydroxy-1-[4-(3,4,5,-trimethoxy-benzoyl)-piperazin-1-yl]-hexan-1-one]	430	340		
COc1cc(CN2CCN(CCCCCCCCC(c3ccc(F)cc3)c3ccc(F)cc3)CC2)cc(OC)c1OC [Compound P40]	286	214		
Fc1ccc(C(CCCCCN2CCN(CCOc3ccc4c(c3)OCO4)CC2)c2ccc(F)cc2)cc1 [Compound P65]	705	517		
COc1cc(CN2CCN(CCCCCC(c3ccc(F)cc3)c3ccc(F)cc3)CC2)cc(OC)c1O [Compound P101]	277	203		
COc1cc(C(=O)N2CCN(C(=O)CCCC(O)C(c3ccc(F)cc3)c3ccc(F)cc3)CC2)cc(OC)c1OC (stereo not shown) [Compound P44, 6,6-bis-(4-fluoro-phenyl)-5-hydroxy-1-[4-(3,4,5-trimethoxy-benzoyl)-piperazin-1-yl]-hexan-1-one]	280	180		

Structure (SMILES)	IC50 [1, 3] [nM]	IC50 [1, 4] [nM]	IC50 [2, 5] [nM]	IC50 [2, 6] [nM]
COc1c(C(C)(C)C)cc(CN2CCN(CCCCCC(c3ccc(F)cc3)c3ccc(F)cc3)C(=O)C2)cc1C(C)(C)C [Compound P56]	78	59	92	95
COc1ccc(OCCN2CCN(CCCCCC(c3ccc(F)cc3)c3ccc(F)cc3)CC2)cc1OC [Compound P60, 1-[6,6-bis-(4-fluoro-phenyl)-hexyl]-4-[2-(3,4,-dimethoxy-phenoxy)-ethyl]-piperazine]	970	790		
CC(C)(C)c1cc(C(=O)N2CCN(C(=O)CCCCC(c3ccc(F)cc3)c3ccc(F)cc3)CC2)cc(C(C)(C)C)c1O [Compound P28]	379	217		
Fc1ccc(C(CCCCCN2CCN(CCSc3nc4ccccc4s3)CC2)c2ccc(F)cc2)cc1 [Compound P74]	660	430		
Cc1cc(OC[C@@H](O)CN2CCN(CCCCCC(c3ccc(F)cc3)c3ccc(F)cc3)CC2)c(C)c(C)c1N [Compound P67]	1050	928		
COc1ccc(CN2CCN(CCCCCC(c3ccc(F)cc3)c3ccc(F)cc3)CC2)cc1OC [Compound P63]	319	258		
COc1ccc(OCCN2CCN(C(=O)CCCCC(c3ccc(F)cc3)c3ccc(F)cc3)CC2)cc1OC [Compound P59, 1-{4-[2-(3,4-dimethoxy-phenoxy)ethyl]-piperazin-1-yl}-6,6-bis-(4-fluoro-phenyl)-hexan-1-one]	810	430		
O=C(CCCCC(c1ccc(F)cc1)c1ccc(F)cc1)N1CCN(CCOc2ccc(F)cc2)CC1 [Compound P79]	579	423		
COc1ccc(C(=O)N2CCN(C(=O)CCCCC(c3ccc(F)cc3)c3ccc(F)cc3)CC2)cc1OC [Compound P64]	541	390		
COc1c(C(C)(C)C)cc(C(=O)N2CCN(C(=O)CCCCC(c3ccc(F)cc3)c3ccc(F)cc3)CC2=O)cc1C(C)(C)C [Compound P55]	190	150		
O=C(CCCCC(c1ccc(F)cc1)c1ccc(F)cc1)N1CCN(CCNc2ccccc2)CC1 [Compound P80]	960	660		
COc1cc(CN2CCN(C(=O)CCCCCCCC(c3ccccc3)c3ccccc3)CC2)cc(OC)c1OC [Compound P102]	419	292		
O=C(NCC(=O)N1CCN(CCCCCC(c2ccc(F)cc2)c2ccc(F)cc2)CC1)c1ccc(Cl)cc1 [Compound P83]	386	192	59	173
CC(C)(C)c1ccc(C(=O)N2CCN(C(=O)CCCCC(c3ccc(F)cc3)c3ccc(F)cc3)CC2)cc1 [Compound P72]	808	630		
COc1cc(CN2CCN(CCCCCC(c3ccc(F)cc3)c3ccc(F)cc3)[C@@H](C(=O)O)C2)cc(OC)c1OC [Compound P61]	610	520		
COc1cc(CNCCN2CCN(CCCCCC(c3ccc(F)cc3)c3ccc(F)cc3)CC2)cc(OC)c1OC [Compound P78]	64	30		
Cc1ccc(C(=O)NCC(=O)N2CCN(CCCCCC(c3ccc(F)cc3)c3ccc(F)cc3)CC2)cc1 [Compound P84]	511	295	149	370
Cc1cc(OC[C@@H](O)CN2CCN(C(=O)CCCCC(c3ccc(F)cc3)c3ccc(F)cc3)CC2)c(C)c(C)c1N [Compound P68]	1580	975		
O=C(CCCCC(c1ccc(F)cc1)c1ccc(F)cc1)N1CCN(c2nc3ccccc3s2)CC1 [Compound P69]	502	410		
